US12698265B2, “Plant extracts enriched with ipolamiide derivatives as immunosuppressants for treating immunological disorders” (priority 2017, dated 2026)

How the values were obtained:
[1] = system: CD8+ T cells activated by αCD3/CD28; assay: Proliferation of CD8+ T cells activated by αCD3/CD28 (BrdU incorporation, Biotrak ELISA); format: cell-based; details: 3, 10 and 30 μM (extract concentration expressed in ipolamiide); human CD8+ T cells from PBMCs; FIG. 2A
Experimental: (§1) FIG. 2—Effect of the aqueous extract of Stachytarpheta cayennensis (3, 10 and 30 μM, concentration expressed in ipolamiide) and isolated ipolamiide (3, 10 and 30 μM) on the proliferation of CD8+ T cells activated by αCD3/CD28 (A) and IFNγ production (B). The effect of the pool of compounds (IV to VIII) and the five novel isolated compounds (IV to VIII) generated after the acid hydrolysis of ipolamiide (30 μM) was also evaluated in the same experiments, proliferation of CD8+ T cells activated by αCD3/CD28 (C) and IFNγ production (D). Tacrolimus (0.5 μM) was used as the positive control for all experiments. The data are the mean±SD of three replicates.
(§2) The extract of Stachytarpheta cayennensis, ipolamiide and derivatives were studied in an experimental in vitro immunological model involving CD8+ T cells and IFNγ. […]
(§3) Peripheral blood mononuclear cells (PBMCs) from healthy volunteers were isolated from leukocyte layers by Ficoll-Hystopaque centrifugation. […] Specifically, it was evaluated the incorporation of BrdU through the Biotrak ELISA System (GE Healthcare, RPN250) per the manufacturer's instructions. The methodology for quantification of interferon gamma comprised the use of the Human IFNγ ELISA Ready-SET-Go kit (eBiosciences 88-7316-88) and followed the manufacturer's instructions. […]

IFNγ = IFNγ production by αCD3/CD28-activated CD8+ T cells (Human IFNγ ELISA); format: cell-based; details: 3, 10 and 30 μM; human CD8+ T cells activated with αCD3/CD28; FIG. 2B
Experimental: as §1, §2, §3

COC(=O)C1=CO[C@@H](O[C@@H]2O[C@H](CO)[C@@H](O)[C@H](O)[C@H]2O)[C@@H]2[C@@](C)(O)CC[C@]12O [ipolamiide]
activation / proliferation of CD8+ T cells induced by αCD3/CD28 [1]: had no effect | secretion of IFNγ (IFNγ): had no effect
